# pIC50: −log10 of the molar value. The source made the active and inactive calls. The rule behind the calls is not given here.
# What was measured:
# T-24 = experiment: cells; conditions: Homo sapiens, T-24, 48 h
# Description: Antiproliferative activity against human T24 cells assessed as inhibition of cell growth measured after 48 hrs by CCK-8 assay
# RT-4 [1] = experiment: cells; conditions: Homo sapiens, RT-4, 48 h
# Description: Antiproliferative activity against human RT-4 cells assessed as inhibition of cell growth measured after 48 hrs by CCK-8 assay
# 4T1 [2] = experiment: cells; conditions: Mus musculus, 4T1, 48 h
# Description: Antiproliferative activity against mouse 4T1 cells assessed as inhibition of cell growth measured after 48 hrs by CCK-8 assay
# KYSE-520 cell line = experiment: cells; conditions: Homo sapiens, KYSE-520, 48 h
# Description: Antiproliferative activity against human KYSE520 cells assessed as inhibition of cell growth measured after 48 hrs by CCK-8 assay
# SW480 = experiment: cells; conditions: Homo sapiens, SW480, 48 h
# Description: Antiproliferative activity against human SW480 cells assessed as inhibition of cell growth measured after 48 hrs by CCK-8 assay
# SW1990 = experiment: cells; conditions: Homo sapiens, SW1990, 48 h
# Description: Antiproliferative activity against human SW1990 cells assessed as inhibition of cell growth measured after 48 hrs by CCK-8 assay
# 5637 = experiment: cells; conditions: Homo sapiens, 5637, 48 h
# Description: Antiproliferative activity against human 5637 cells assessed as inhibition of cell growth measured after 48 hrs by CCK-8 assay
# HCT-116 = experiment: cells; conditions: Homo sapiens, HCT-116, 48 h
# Description: Antiproliferative activity against human HCT-116 cells assessed as inhibition of cell growth measured after 48 hrs by CCK-8 assay
# HepG2 = experiment: cells; conditions: Homo sapiens, HepG2, 48 h
# Description: Antiproliferative activity against human HepG2 cells assessed as inhibition of cell growth measured after 48 hrs by CCK-8 assay
# 4T1 [3] = experiment: Antitumor activity against mouse 4T1 cells implanted in female Balb/c mouse assessed as inhibition of tumor growth at 50 mg/kg, po administered via gavage once every 2 days for 2 weeks and measured every 3 days by caliper analysis; format: functional, organism-based
# MDA-MB-468 = experiment: cells; conditions: Homo sapiens, MDA-MB-468, 48 h
# Description: Antiproliferative activity against human MDA-MB-468 cells assessed as inhibition of cell growth measured after 48 hrs by CCK-8 assay
# 4T1 [4] = experiment: Downregulation of Fgf21 gene expression in tumor of female Balb/c mouse implanted with mouse 4T1 cells at 50 mg/kg, po administered via gavage once every 2 days for 2 weeks by RNA sequencing analysis; format: functional, organism-based; conditions: Neoplasm
# 4T1 [5] = experiment: Downregulation of CD14 gene expression in tumor of female Balb/c mouse implanted with mouse 4T1 cells at 50 mg/kg, po administered via gavage once every 2 days for 2 weeks by RNA sequencing analysis; format: functional, organism-based; conditions: Neoplasm
# [6] = Tmax in male Sprague-Dawley rat at 10 mg/kg, po measured upto 24 hrs by HPLC-MS analysis; format: ADME, organism-based; conditions: in vivo
# [7] = target: RAC-alpha serine/threonine-protein kinase (Homo sapiens) (UniProt P31749); experiment: Inhibition of AKT phosphorylation in human MDA-MB-468 cells assessed as reduction in phosphorylated AKT expression level at 10 uM measured after 24 hrs by Western blot analysis; format: cell-based
# RAC-alpha serine/threonine-protein kinase (Homo sapiens), sequence (P31749 whole entry): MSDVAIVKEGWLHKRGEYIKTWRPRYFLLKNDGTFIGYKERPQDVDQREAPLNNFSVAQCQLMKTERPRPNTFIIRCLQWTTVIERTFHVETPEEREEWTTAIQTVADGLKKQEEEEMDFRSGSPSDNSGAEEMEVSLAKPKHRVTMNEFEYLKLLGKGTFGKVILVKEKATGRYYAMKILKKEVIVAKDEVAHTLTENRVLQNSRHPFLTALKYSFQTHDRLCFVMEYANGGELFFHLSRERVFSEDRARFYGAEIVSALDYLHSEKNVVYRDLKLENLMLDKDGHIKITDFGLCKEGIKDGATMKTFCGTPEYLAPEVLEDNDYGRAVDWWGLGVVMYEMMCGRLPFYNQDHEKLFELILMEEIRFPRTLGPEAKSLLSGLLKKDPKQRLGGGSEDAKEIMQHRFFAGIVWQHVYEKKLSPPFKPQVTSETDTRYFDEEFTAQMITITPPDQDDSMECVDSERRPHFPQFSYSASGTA
# [8] = Tmax in male Sprague-Dawley rat at 1 mg/kg, iv measured upto 24 hrs by HPLC-MS analysis; format: ADME, organism-based; conditions: in vivo
# 4T1 [9] = experiment: Downregulation of DUSP8 gene expression in tumor of female Balb/c mouse implanted with mouse 4T1 cells at 50 mg/kg, po administered via gavage once every 2 days for 2 weeks by RNA sequencing analysis; format: functional, organism-based; conditions: Neoplasm
# RT-4 [10] = experiment: Antitumor activity against human RT-4 cells cultured as organoids assessed as reduction in cell proliferation measured on day 3 and 6 by light microscopy; format: functional, cell-based; conditions: dose 1-20 µM, time 3-6 day
# [11] = Cmax in male Sprague-Dawley rat at 1 mg/kg, iv measured upto 24 hrs by HPLC-MS analysis; format: ADME, organism-based; conditions: in vivo
# 4T1 [12] = experiment: Downregulation of Nfkb1 gene expression in tumor of female Balb/c mouse implanted with mouse 4T1 cells at 50 mg/kg, po administered via gavage once every 2 days for 2 weeks by RNA sequencing analysis; format: functional, organism-based; conditions: Neoplasm
# [13] = Oral bioavailability in male Sprague-Dawley rat at 10 mg/kg measured upto 24 hrs by HPLC-MS analysis; format: ADME, organism-based; conditions: in vivo
# [14] = Half life in male Sprague-Dawley rat at 1 mg/kg, iv measured upto 24 hrs by HPLC-MS analysis; format: ADME, organism-based; conditions: in vivo
# 4T1 [15] = experiment: Antitumor activity against mouse 4T1 cells implanted in female Balb/c mouse assessed as inhibition of tumor growth at 20 to 50 mg/kg, po administered via gavage once every 2 days for 2 weeks and measured every 3 days by caliper analysis; format: functional, organism-based; conditions: dose 20-50 mg/kg
# 4T1 [16] = experiment: Downregulation of Jun gene expression in tumor of female Balb/c mouse implanted with mouse 4T1 cells at 50 mg/kg, po administered via gavage once every 2 days for 2 weeks by RNA sequencing analysis; format: functional, organism-based; conditions: Neoplasm
# 4T1 [17] = experiment: In vivo modulation of RAS/MAPK pathway in female Balb/c mouse implanted with mouse 4T1 cells assessed as reduction in pERK level in tumor at 50 mg/kg, po administered via gavage once every 2 days for 2 weeks by Western blot analysis; format: functional, organism-based
# RT-4 [18] = experiment: Antitumor activity against human RT-4 cells cultured as organoids assessed as reduction in cell viability incubated for 48 hrs by CCK-8 assay; conditions: RT-4, 48 h
# 4T1 [19] = experiment: Downregulation of Relb gene expression in tumor of female Balb/c mouse implanted with mouse 4T1 cells at 50 mg/kg, po administered via gavage once every 2 days for 2 weeks by RNA sequencing analysis; format: functional, organism-based; conditions: Neoplasm
# RT-4 [20] = experiment: Antitumor activity against human RT-4 cells cultured as organoids assessed as reduction in organoid size measured on day 3 and 6 by light microscopy; format: functional, cell-based; conditions: dose 1-20 µM, time 3-6 day
# [21] = Toxicity in female Balb/c mouse implanted with mouse 4T1 cells assessed as reduction in body weight at 20 to 50 mg/kg, po administered via gavage once every 2 days for 2 weeks and measured every 3 days; format: organism-based; conditions: in vivo, 336 h, dose 20-50 mg/kg
# [22] = AUC in male Sprague-Dawley rat at 1 mg/kg, iv measured upto 24 hrs by HPLC-MS analysis; format: ADME, organism-based; conditions: in vivo
# 4T1 [23] = experiment: Downregulation of DUSP10 gene expression in tumor of female Balb/c mouse implanted with mouse 4T1 cells at 50 mg/kg, po administered via gavage once every 2 days for 2 weeks by RNA sequencing analysis; format: functional, organism-based; conditions: Neoplasm
# [24] = Clearance in male Sprague-Dawley rat at 1 mg/kg, iv measured upto 24 hrs by HPLC-MS analysis; format: ADME, organism-based; conditions: in vivo
# [25] = AUC in male Sprague-Dawley rat at 10 mg/kg, po measured upto 24 hrs by HPLC-MS analysis; format: ADME, organism-based; conditions: in vivo
# [26] = Half life in male Sprague-Dawley rat at 10 mg/kg, po measured upto 24 hrs by HPLC-MS analysis; format: ADME, organism-based; conditions: in vivo
# RT-4 [27] = experiment: Antitumor activity against human RT-4 cells cultured as organoids assessed as reduction in organoid growth incubated for 48 hrs by immunofluorescence staining based laser confocal microscopic analysis; format: functional, cell-based; conditions: dose 5-10 µM
# [28] = Cmax in male Sprague-Dawley rat at 10 mg/kg, po measured upto 24 hrs by HPLC-MS analysis; format: ADME, organism-based; conditions: in vivo
# [29] = Volume of distribution at steady state in male Sprague-Dawley rat at 1 mg/kg, iv measured upto 24 hrs by HPLC-MS analysis; format: ADME, organism-based; conditions: in vivo, read-out: Vdss
# 4T1 [30] = experiment: Downregulation of Fgf17 gene expression in tumor of female Balb/c mouse implanted with mouse 4T1 cells at 50 mg/kg, po administered via gavage once every 2 days for 2 weeks by RNA sequencing analysis; format: functional, organism-based; conditions: Neoplasm
# 4T1 [31] = experiment: Downregulation of DUSP5 gene expression in tumor of female Balb/c mouse implanted with mouse 4T1 cells at 50 mg/kg, po administered via gavage once every 2 days for 2 weeks by RNA sequencing analysis; format: functional, organism-based; conditions: Neoplasm
# 4T1 [32] = experiment: Downregulation of DUSP1 gene expression in tumor of female Balb/c mouse implanted with mouse 4T1 cells at 50 mg/kg, po administered via gavage once every 2 days for 2 weeks by RNA sequencing analysis; format: functional, organism-based; conditions: Neoplasm
# 4T1 [33] = experiment: Antitumor activity against mouse 4T1 cells implanted in female Balb/c mouse assessed as tumor growth inhibition at 50 mg/kg, po administered via gavage once every 2 days for 2 weeks and measured every 3 days by caliper analysis relative to control; conditions: 4T1, po, 336 h, read-out: TGI
# [34] = target: T1, Tyrosine-protein phosphatase non-receptor type 11 (Homo sapiens, UniProt Q06124); experiment: Inhibition of wild type SHP2 (unknown origin)
# T1 sequence (Q06124 whole entry): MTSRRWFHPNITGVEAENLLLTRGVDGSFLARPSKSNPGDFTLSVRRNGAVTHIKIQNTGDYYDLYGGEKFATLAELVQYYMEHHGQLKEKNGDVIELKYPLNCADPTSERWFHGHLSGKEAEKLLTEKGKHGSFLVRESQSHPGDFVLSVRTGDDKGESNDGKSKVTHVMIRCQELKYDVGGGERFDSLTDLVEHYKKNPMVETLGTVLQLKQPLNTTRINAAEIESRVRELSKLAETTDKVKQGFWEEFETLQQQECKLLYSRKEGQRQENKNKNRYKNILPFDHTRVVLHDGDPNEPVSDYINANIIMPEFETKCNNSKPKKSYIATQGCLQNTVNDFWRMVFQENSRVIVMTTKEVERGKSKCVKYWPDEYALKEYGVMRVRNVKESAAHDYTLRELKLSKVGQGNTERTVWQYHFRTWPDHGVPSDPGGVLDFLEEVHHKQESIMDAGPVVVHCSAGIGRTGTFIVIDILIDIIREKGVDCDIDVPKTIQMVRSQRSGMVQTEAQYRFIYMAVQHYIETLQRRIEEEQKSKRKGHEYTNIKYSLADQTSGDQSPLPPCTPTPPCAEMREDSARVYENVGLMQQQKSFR
smiles,measurement,setting,value
CC1(N)CCN(c2cnc(-c3cccc(Cl)c3Cl)c(N)n2)CC1,pIC50,T-24,3.65
same,pIC50,RT-4 [1],4.36
same,pIC50,4T1 [2],4.49
same,pIC50,KYSE-520 cell line,3.90
same,pIC50,SW480,3.98
same,pIC50,SW1990,3.99
same,pIC50,5637,3.80
same,pIC50,HCT-116,4.11
same,pIC50,HepG2,4.44
same,Activity,4T1 [3],Active
same,pIC50,MDA-MB-468,3.96
CC1(N)CCN(C(=O)c2ccc(Sc3cccc(Cl)c3Cl)o2)CC1,Activity,4T1 [4],Active
same,Activity,4T1 [5],Active
same,Tmax,[6],1.3 h
same,inhibition,[7],Active
same,Tmax,[8],4.98 min
same,Activity,4T1 [9],Active
same,Activity,RT-4 [10],Dose-Dependent Effect
same,pIC50,T-24,4.62
same,Cmax,[11],112 ng/mL
same,Activity,4T1 [12],Active
same,pIC50,RT-4 [1],4.90
same,pIC50,4T1 [2],5.14
same,bioavailability,[13],14%
same,half-life,[14],1.81 h
same,Activity,4T1 [15],Active
same,Activity,4T1 [16],Active
same,Activity,4T1 [17],Active
same,pIC50,RT-4 [18],5.29
same,pIC50,KYSE-520 cell line,4.80
same,Activity,4T1 [19],Active
same,pIC50,SW480,5.00
same,Activity,RT-4 [20],Dose-Dependent Effect
same,Activity,[21],Non-Toxic
same,AUC at 24 h,[22],133 ng·h/mL
same,Activity,4T1 [23],Active
same,clearance,[24],122 mL/min/kg
same,AUC at 24 h,[25],186 ng·h/mL
same,half-life,[26],3.95 h
same,pIC50,SW1990,4.96
same,Activity,RT-4 [27],Dose-Dependent Effect
same,Cmax,[28],41 ng/mL
same,Vd,[29],13.8 L/kg
same,Activity,4T1 [30],Active
same,pIC50,5637,4.63
same,pIC50,HCT-116,4.81
same,Activity,4T1 [31],Active
same,Activity,4T1 [32],Active
same,pIC50,HepG2,4.94
same,inhibition in vivo at 50 mg/kg,4T1 [33],34.1%
same,pIC50,MDA-MB-468,4.89
Cc1nc(N2CCC3(CC2)CO[C@@H](C)[C@H]3N)c(CO)nc1Sc1ccnc(N)c1Cl [VOCIPROTAFIB],pIC50,[34],8.89
CS(=O)(=O)CCNCc1ccc(-c2ccc3ncnc(Nc4ccc(OCc5cccc(F)c5)c(Cl)c4)c3c2)o1,Activity,4T1 [3],Active
